Test results from patent US9187524B2, “Broad spectrum antibiotic arylomycin analogs” (The Scripps Research Institute, priority 2010, dated 2015).

Experiments:
S. epidermidis = assay: Selection of arylomycin resistant S. epidermidis; format: cell-based; details: growth in the presence of 2 μg/ml (8×MIC)
[1] = system: S. epidermidis PAS9002 (SPase S31P); assay: microbe, parasite or virus in culture; format: cell-based

## CCCCCCCCCCCCCCCC(=O)N(C)[C@H](CO)C(=O)N[C@H](C)C(=O)NCC(=O)N(C)[C@@H]1C(=O)N[C@@H](C)C(=O)N[C@H](C(=O)O)Cc2ccc(O)c(c2)-c2cc1ccc2O [Arylomycin C16]
S. epidermidis
  frequency of resistant mutants: 4 per 109 viable cells
[1]; Staphylococcus epidermidis, read-out: MIC, S. epidermidis PAS9002
  MIC: > 128 µg/mL
[1]; remainder of selected S. epidermidis mutants
  fold elevated MIC compared to the wild type strain, Ser to Pro at position 31: greater than 256 fold
